Test results as given in US11827917B1, “Methods for the conversion of fermentable sugars to ethanol” (Colorado State University Research Foundation, priority 2020, dated 2023).
Marks after values point to notes of the source that are not given here.

Assays:
yeast = assay: Yeast growth and ethanol yield in serum bottles, low/high cell inoculum (Tables 5, 6); type: cell-based; conditions: for EtOH yield / EtOH yield % Δ from control: 26 h test
S. cerevisiae ATCC 26603 = assay: Serum-bottle cultivation in YPD, different yeast strains; type: cell-based, Saccharomyces cerevisiae; conditions: 0.2%
S. cerevisiae JAY 241 = assay: as above; type: cell-based, Saccharomyces cerevisiae; conditions: 0.2%
S. cerevisiae JAY 240 = assay: as above; type: cell-based, Saccharomyces cerevisiae; conditions: 0.2%
S. kudriavzezii JAY 1503 = assay: as above; type: cell-based; conditions: 0.2%
Experimental: (§1) Analytical methods: Cell growth was evaluated by monitoring OD600 and cell dry mass concentration. For dry mass measurements, 1.0 mL of culture was transferred to a pre-dried and pre-weighed 2-mL centrifuge tube. The tubes were centrifuged for 10 min at 14000 rpm using a microcentrifuge, and then the cell pellets were dried in an oven for 3 days at 65° C. The cell dry mass was determined by subtracting the initial tube mass from the dried mass of tube with cells. The concentrations of glucose, ethanol, and glycerol were measured via HPLC (Shimadzu LC20A series) outfitted with a refractive index detector and using an Aminex HPX-87H (300×7.8 mm) organic acid column and Cation H+ guard cartridge (Bio Rad Laboratories, Hercules, CA). The column was maintained at 65° C. and the mobile phase was 5 mM sulfuric acid with a flow rate of 0.6 mL/min. Standard compound solutions were used to calibrate the HPLC. Each sample was analyzed three times by HPLC.
(§2) Procedure: Seven yeast strains (S. cerevisiae ATCC 26603, S. cerevisiae JAY 238, S. cerevisiae JAY 240, S. cerevisiae JAY 241, S. paradoxus JAY 1502, S. kudriavzezii JAY 1503, and S. mikatae JAY 1504) were pre-cultured in 30 mL of YPD medium in 100 mL serum bottle overnight in a shaker at 30° C. and 200 rpm. The precultured yeast cells of each strains were collected and washed twice. Finally, the cell pellet was resuspended in about 10 mL 0.8% (w/v) NaCl and the OD600 measured. TyrOH, PheOH, and TrpOH were added to 30 mL of YPD medium in 100-mL serum bottles at 0.2% (w/v) respectively. The same amount of DMSO was added in YPD medium and served as control to the TrpOH and TyrOH treatments. The prepared yeast cells were added to obtain the initial cell concentration at OD600=0.2. The serum bottles were sealed and cultured in a shaker at 30° C. and 200 rpm for 24 h. There were three biological replicates for each treatment.

S. paradoxus JAY 1502 = assay: as above; type: cell-based; conditions: 0.2%
Experimental: as §1, §2

S. mikatae JAY 1504 = assay: as above; type: cell-based; conditions: 0.2%
Experimental: as §1, §2

[1] = 0.05%, high cell inoculum (OD600 at 0 h 1.96)
[2] = 0.05%, low cell inoculum (OD600 at 0 h 0.70)
[3] = 0.1%, high cell inoculum (OD600 at 0 h 1.96)
[4] = 0.1%, low cell inoculum (OD600 at 0 h 0.70)
[5] = 0.2%, high cell inoculum (OD600 at 0 h 1.96)
[6] = 0.2%, low cell inoculum (OD600 at 0 h 0.70)
[7] = S. cerevisiae ATCC 26603, YPD (Table 9B)
[8] = S. cerevisiae JAY 241, YPD (Table 9B)
[9] = S. cerevisiae JAY 240, YPD (Table 9B)
[10] = S. kudriavzezii JAY 1503, YPD (Table 9B)
[11] = S. paradoxus JAY 1502, YPD (Table 9B)
[12] = S. mikatae JAY 1504, YPD (Table 9B)

Q: Which results are given for OCCc1ccccc1 [PheOH, 2-phenylethanol]?
A: OD600 at 26 h (yeast; [1]): 4.24; EtOH yield (yeast; [1]): 0.47 g/g; EtOH yield % Δ from control (yeast; [1]): 3.1%; OD600 at 26 h (yeast; [2]): 3.28; EtOH yield (yeast; [2]): 0.47 g/g; EtOH yield % Δ from control (yeast; [2]): −1.9%; OD600 at 26 h (yeast; [3]): 3.99; EtOH yield (yeast; [3]): 0.47 g/g; EtOH yield % Δ from control (yeast; [3]): 1.7%; OD600 at 26 h (yeast; [4]): 2.83; EtOH yield (yeast; [4]): 0.45 g/g; EtOH yield % Δ from control (yeast; [4]): −4.6%; OD600 at 26 h (yeast; [5]): 3.53; EtOH yield (yeast; [5]): 0.48 g/g; EtOH yield % Δ from control (yeast; [5]): 4.9%; OD600 at 26 h (yeast; [6]): 2.41; EtOH yield (yeast; [6]): 0.47 g/g; EtOH yield % Δ from control (yeast; [6]): −1.1%; Biomass Yield (S. cerevisiae ATCC 26603; S. cerevisiae ATCC 26603): 0.052 ± 0.001 g/g; Biomass yield % change vs. control (S. cerevisiae ATCC 26603; S. cerevisiae ATCC 26603): −22* %; EtOH yield (S. cerevisiae ATCC 26603; S. cerevisiae ATCC 26603): 0.453 ± 0.006 g/g; EtOH yield % change vs. control (S. cerevisiae ATCC 26603; S. cerevisiae ATCC 26603): +1.2%; Glycerol yield (S. cerevisiae ATCC 26603; S. cerevisiae ATCC 26603): 0.054 ± 0.001 g/g; Glycerol yield % change vs. control (S. cerevisiae ATCC 26603; S. cerevisiae ATCC 26603): −25* %; DCW (S. cerevisiae ATCC 26603; S. cerevisiae ATCC 26603, YPD): 1.40 mg; DCW Δ vs. ref (S. cerevisiae ATCC 26603; S. cerevisiae ATCC 26603, YPD): 76.4%; OD600 (S. cerevisiae ATCC 26603; S. cerevisiae ATCC 26603, YPD): 1.27; OD600 Δ vs. ref (S. cerevisiae ATCC 26603; S. cerevisiae ATCC 26603, YPD): 85.6%; Biomass Yield (S. cerevisiae ATCC 26603; [7]): 0.052 + 0.001 g/g; Biomass yield Δ vs. ref (S. cerevisiae ATCC 26603; [7]): −22.3%; Ethanol yield (S. cerevisiae ATCC 26603; [7]): 0.453 ± 0.006 g/g; Ethanol yield Δ vs. ref (S. cerevisiae ATCC 26603; [7]): 1.2%; Glycerol yield (S. cerevisiae ATCC 26603; [7]): 0.054 ± 0.001 g/g; Glycerol yield Δ vs. ref (S. cerevisiae ATCC 26603; [7]): −25.07%; Biomass Yield (S. cerevisiae JAY 241; S. cerevisiae JAY 241): 0.042 ± 0.001 g/g; Biomass yield % change vs. control (S. cerevisiae JAY 241; S. cerevisiae JAY 241): −28* %; EtOH yield (S. cerevisiae JAY 241; S. cerevisiae JAY 241): 0.399 ± 0.003 g/g; Glycerol yield (S. cerevisiae JAY 241; S. cerevisiae JAY 241): 0.037 ± 0.002 g/g; Glycerol yield % change vs. control (S. cerevisiae JAY 241; S. cerevisiae JAY 241): −31* %; DCW (S. cerevisiae JAY 241; S. cerevisiae JAY 241, YPD): 2.10 mg; DCW Δ vs. ref (S. cerevisiae JAY 241; S. cerevisiae JAY 241, YPD): 80.8%; OD600 (S. cerevisiae JAY 241; S. cerevisiae JAY 241, YPD): 1.45; OD600 Δ vs. ref (S. cerevisiae JAY 241; S. cerevisiae JAY 241, YPD): 69.9%; Biomass Yield (S. cerevisiae JAY 241; [8]): 0.042 + 0.001 g/g; Biomass yield Δ vs. ref (S. cerevisiae JAY 241; [8]): −27.9%; Ethanol yield (S. cerevisiae JAY 241; [8]): 0.399 ± 0.003 g/g; Ethanol yield Δ vs. ref (S. cerevisiae JAY 241; [8]): 0.4%; Glycerol yield (S. cerevisiae JAY 241; [8]): 0.037 ± 0.002 g/g; Glycerol yield Δ vs. ref (S. cerevisiae JAY 241; [8]): −31.00%; Biomass Yield (S. cerevisiae JAY 240; S. cerevisiae JAY 240): 0.060 ± 0.000 g/g; Biomass yield % change vs. control (S. cerevisiae JAY 240; S. cerevisiae JAY 240): −19* %; EtOH yield (S. cerevisiae JAY 240; S. cerevisiae JAY 240): 0.448 ± 0.018 g/g; EtOH yield % change vs. control (S. cerevisiae JAY 240; S. cerevisiae JAY 240): +8.2* %; Glycerol yield (S. cerevisiae JAY 240; S. cerevisiae JAY 240): 0.038 ± 0.002 g/g; Glycerol yield % change vs. control (S. cerevisiae JAY 240; S. cerevisiae JAY 240): +2.2%; DCW (S. cerevisiae JAY 240; S. cerevisiae JAY 240, YPD): 2.20 mg; DCW Δ vs. ref (S. cerevisiae JAY 240; S. cerevisiae JAY 240, YPD): 78.6%; OD600 (S. cerevisiae JAY 240; S. cerevisiae JAY 240, YPD): 1.89; OD600 Δ vs. ref (S. cerevisiae JAY 240; S. cerevisiae JAY 240, YPD): 72.2%; Biomass Yield (S. cerevisiae JAY 240; [9]): 0.060 + 0.000 g/g; Biomass yield Δ vs. ref (S. cerevisiae JAY 240; [9]): −19.1%; Ethanol yield (S. cerevisiae JAY 240; [9]): 0.448 ± 0.018 g/g; Ethanol yield Δ vs. ref (S. cerevisiae JAY 240; [9]): 8.2%; Glycerol yield (S. cerevisiae JAY 240; [9]): 0.038 ± 0.002 g/g; Glycerol yield Δ vs. ref (S. cerevisiae JAY 240; [9]): 2.20%; Biomass Yield (S. kudriavzezii JAY 1503; S. kudriavzezii JAY 1503): 0.036 ± 0.001 g/g; Biomass yield % change vs. control (S. kudriavzezii JAY 1503; S. kudriavzezii JAY 1503): −19%; EtOH yield (S. kudriavzezii JAY 1503; S. kudriavzezii JAY 1503): 0.399 ± 0.030 g/g; EtOH yield % change vs. control (S. kudriavzezii JAY 1503; S. kudriavzezii JAY 1503): +8.7%; Glycerol yield (S. kudriavzezii JAY 1503; S. kudriavzezii JAY 1503): 0.060 ± 0.005 g/g; Glycerol yield % change vs. control (S. kudriavzezii JAY 1503; S. kudriavzezii JAY 1503): +19* %; DCW (S. kudriavzezii JAY 1503; S. kudriavzezii JAY 1503, YPD): 1.90 mg; DCW Δ vs. ref (S. kudriavzezii JAY 1503; S. kudriavzezii JAY 1503, YPD): 84.4%; OD600 (S. kudriavzezii JAY 1503; S. kudriavzezii JAY 1503, YPD): 0.92; OD600 Δ vs. ref (S. kudriavzezii JAY 1503; S. kudriavzezii JAY 1503, YPD): 74.9%; Biomass Yield (S. kudriavzezii JAY 1503; [10]): 0.043 + 0.004 g/g; Biomass yield Δ vs. ref (S. kudriavzezii JAY 1503; [10]): 18.6%; Ethanol yield (S. kudriavzezii JAY 1503; [10]): 0.399 ± 0.030 g/g; Ethanol yield Δ vs. ref (S. kudriavzezii JAY 1503; [10]): 8.7%; Glycerol yield (S. kudriavzezii JAY 1503; [10]): 0.06 ± 0.005 g/g; Glycerol yield Δ vs. ref (S. kudriavzezii JAY 1503; [10]): 18.78%; Biomass Yield (S. paradoxus JAY 1502; S. paradoxus JAY 1502): 0.048 ± 0.001 g/g; Biomass yield % change vs. control (S. paradoxus JAY 1502; S. paradoxus JAY 1502): −30* %; EtOH yield (S. paradoxus JAY 1502; S. paradoxus JAY 1502): 0.393 ± 0.000 g/g; EtOH yield % change vs. control (S. paradoxus JAY 1502; S. paradoxus JAY 1502): +2.7%; Glycerol yield (S. paradoxus JAY 1502; S. paradoxus JAY 1502): 0.048 ± 0.002 g/g; Glycerol yield % change vs. control (S. paradoxus JAY 1502; S. paradoxus JAY 1502): +22* %; DCW (S. paradoxus JAY 1502; S. paradoxus JAY 1502, YPD): 1.95 mg; DCW Δ vs. ref (S. paradoxus JAY 1502; S. paradoxus JAY 1502, YPD): 78.0%; OD600 (S. paradoxus JAY 1502; S. paradoxus JAY 1502, YPD): 1.64; OD600 Δ vs. ref (S. paradoxus JAY 1502; S. paradoxus JAY 1502, YPD): 70.0%; Biomass Yield (S. paradoxus JAY 1502; [11]): 0.048 + 0.001 g/g; Biomass yield Δ vs. ref (S. paradoxus JAY 1502; [11]): −29.8%; Ethanol yield (S. paradoxus JAY 1502; [11]): 0.393 ± 0.000 g/g; Ethanol yield Δ vs. ref (S. paradoxus JAY 1502; [11]): 2.7%; Glycerol yield (S. paradoxus JAY 1502; [11]): 0.048 ± 0.002 g/g; Glycerol yield Δ vs. ref (S. paradoxus JAY 1502; [11]): 21.98%; Biomass Yield (S. mikatae JAY 1504; S. mikatae JAY 1504): 0.053 ± 0.000 g/g; Biomass yield % change vs. control (S. mikatae JAY 1504; S. mikatae JAY 1504): −14%; EtOH yield (S. mikatae JAY 1504; S. mikatae JAY 1504): 0.386 ± 0.009 g/g; EtOH yield % change vs. control (S. mikatae JAY 1504; S. mikatae JAY 1504): +3.6%; Glycerol yield (S. mikatae JAY 1504; S. mikatae JAY 1504): 0.043 ± 0.007 g/g; Glycerol yield % change vs. control (S. mikatae JAY 1504; S. mikatae JAY 1504): +4.1%; DCW (S. mikatae JAY 1504; S. mikatae JAY 1504, YPD): 2.35 mg; DCW Δ vs. ref (S. mikatae JAY 1504; S. mikatae JAY 1504, YPD): 77.1%; OD600 (S. mikatae JAY 1504; S. mikatae JAY 1504, YPD): 1.85; OD600 Δ vs. ref (S. mikatae JAY 1504; S. mikatae JAY 1504, YPD): 82.9%; Biomass Yield (S. mikatae JAY 1504; [12]): 0.053 + 0.000 g/g; Biomass yield Δ vs. ref (S. mikatae JAY 1504; [12]): −13.8%; Ethanol yield (S. mikatae JAY 1504; [12]): 0.386 ± 0.009 g/g; Ethanol yield Δ vs. ref (S. mikatae JAY 1504; [12]): 3.6%; Glycerol yield (S. mikatae JAY 1504; [12]): 0.043 ± 0.007 g/g; Glycerol yield Δ vs. ref (S. mikatae JAY 1504; [12]): 4.09%
